System: 485176-168-R4-J1-PDC spheroids with HUVEC/MSC, viability
Experiment: Anticancer human tumor 485176-168-R4-J1-PDC patient-derived pancreatic adenocarcinoma cell line growth inhibition [GQUAD]
Conditions: for IC50: curve of first compound; for viability, T/C: stronger effect = lower value
Source text: DNA G-quadruplex Stabilizer Agents in Combinations in Complex Spheroids
A high-throughput screen of multi-cell type tumor spheroids was designed to identify active combinations of DNA G-quadruplex stabilizer agents and targeted small molecules. Complex spheroids include a stromal component modeled by human endothelial cells (HUVEC) and fibroblasts modeled by human mesenchymal stem cells (MSCs). The concentration ranges selected for each drug and investigational agent were based upon clinically achievable concentrations if the clinical Cmax of the agent was known.
Compounds. The drugs and investigational agents: pidnarulex (CX-5461; NSC782164), APTO-253 (NSC789042), BRACO-19 (NSC847499), peposertib (NSC802822), ceralasertib (NSC780249), elimusertib (NSC800525), camonsertib (NSC841442), AZD-1390 (NSC803789), olaparib (NSC753686), talazoparib (NSC767125), ART-558 (NSC835418), sotorasib (NSC818433), MRTX-1133 (NSC836407), SN-38 (NSC673596), topotecan (NSC609699), etoposide (NSC141540), doxorubicin (NSC123127), gemcitabine (NSC613327), 5-fluorouracil (NSC19893), paclitaxel (NSC125973), vemurafenib (NSC761431), panobinostat (NSC761190), R-306465 (JNJ-16241199; NSC773264), adavosertib (NSC754352), TP-3654 (NSC805149), carboplatin (NSC241240), KSQ-4279 (NSC840948), and staurosporine (NSC755774) were obtained from the National Cancer Institute (NCI) Developmental Therapeutics Program Chemical Repository (34). The FDA-approved anticancer drug set is available from the NCI Developmental Therapeutics Program. […] The stock solutions were prepared in dimethyl sulfoxide (DMSO, Sigma-Aldrich, St. Louis, MO, cat. D2650) at 800-fold the tested concentration and stored at -70 degrees C prior to their use. All drugs and investigational agents were tested over a range starting from a high concentration at or near the clinical Cmax and decreasing in half-log increments. If the clinical Cmax for an agent had not been determined, the highest concentration tested was 10 microM.
2.3 Cell Culture. All cells were maintained in an incubator at 37 degrees C and 5% CO2 with 95% humidity. The PDC lines were cultured according to standard operating procedures established by the NCI PDMR. All PDCs were thawed and cultured in Matrigel-coated flasks prepared with a working solution of 1X Ham's F-12 nutrient mix, without supplementation (Invitrogen, cat. 11765054), 100 U/mL penicillin-streptomycin (Invitrogen, cat. 15140122), and 2.5% Matrigel (Corning Inc., cat. 354248) for the first three passages. The 857933-349-R-J2-PDC line was cultured in 6C/Colon 1B media, which includes advanced DMEM/F-12 (Thermo Fisher Scientific, cat. 12634028), 10 mM HEPES (Thermo Fisher Scientific, cat. 15630080), 1X GlutaMAX supplement (Thermo Fisher Scientific, cat. 35050061), 0.1 mg/mL primocin (InvivoGen, cat. ant-pm-2), 10% defined fetal bovine serum, heat inactivated (HyClone Laboratories Inc., cat. SH30070.03HI), 50% L-WRN conditioned media (ATCC, cat. CRL-3276), 1.25 mM N-Acetyl-L-cysteine (Sigma-Aldrich, cat. A9165), 10 mM nicotinamide (Sigma-Aldrich, cat. N0636), 1X B-27 supplement (Thermo Fisher Scientific, cat. 17504044), 1X N-2 supplement (Thermo Fisher Scientific, cat. 17502048), 10 microM Y-27632 dihydrochloride (Tocris Bioscience, cat. 1254), and 50 ng/mL human EGF recombinant protein (Thermo Fisher Scientific, cat. PHG0311). The 485176-168-R4-J1-PDC line was cultured in Panc media, which includes all 6C/Colon 1B media components plus 100 ng/mL human FGF-10 (Thermo Fisher Scientific, cat. 100-26), 500 nM SB-431542 (Selleckchem, cat. S1067), and gastrin (Tocris, cat. 3006).
[…]

[1] = second compound 0.0316 µM, first compound 0.0316 µM
[2] = second compound 0.0316 µM, first compound 0.1 µM
[3] = second compound 0.0316 µM, first compound 0.316 µM
[4] = second compound 0.0316 µM, first compound 1 µM
[5] = second compound 0.0316 µM, first compound 3.16 µM
[6] = second compound 0.0316 µM, first compound 10 µM
[7] = second compound 0.1 µM, first compound 0.0316 µM
[8] = second compound 0.1 µM, first compound 0.1 µM
[9] = second compound 0.1 µM, first compound 0.316 µM
[10] = second compound 0.1 µM, first compound 1 µM
[11] = second compound 0.1 µM, first compound 3.16 µM
[12] = second compound 0.1 µM, first compound 10 µM
[13] = second compound 0.316 µM, first compound 0.0316 µM
[14] = second compound 0.316 µM, first compound 0.1 µM
[15] = second compound 0.316 µM, first compound 0.316 µM
[16] = second compound 0.316 µM, first compound 1 µM
[17] = second compound 0.316 µM, first compound 3.16 µM
[18] = second compound 0.316 µM, first compound 10 µM
[19] = second compound 1 µM, first compound 0.0316 µM
[20] = second compound 1 µM, first compound 0.1 µM
[21] = second compound 1 µM, first compound 0.316 µM
[22] = second compound 1 µM, first compound 1 µM
[23] = second compound 1 µM, first compound 3.16 µM
[24] = second compound 1 µM, first compound 10 µM
[25] = second compound 3.16 µM, first compound 0.0316 µM
[26] = second compound 3.16 µM, first compound 0.1 µM
[27] = second compound 3.16 µM, first compound 0.316 µM
[28] = second compound 3.16 µM, first compound 1 µM
[29] = second compound 3.16 µM, first compound 3.16 µM
[30] = second compound 3.16 µM, first compound 10 µM
[31] = second compound 10 µM, first compound 0.0316 µM
[32] = second compound 10 µM, first compound 0.1 µM
[33] = second compound 10 µM, first compound 0.316 µM
[34] = second compound 10 µM, first compound 1 µM
[35] = second compound 10 µM, first compound 3.16 µM
[36] = second compound 10 µM, first compound 10 µM
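Further: spheroids exposed to compounds for seven days before readout.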
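Wherever viability, T/C is given: percent viability relative to DMSO vehicle control wells as 100%.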

In the case of `Nc1ccn(C2OC(CO)C(O)C2(F)F)c(=O)n1` (centres undefined) + Cc1cnc(CNC(=O)c2c(=O)c3ccc(N4CCCN(C)CC4)nc3n3c2sc2ccccc23)cn1, the IC50 (second compound 0.0316 µM) is reported as 42.2 nM, the IC50 (second compound 0.1 µM) is reported as 33.1 nM and the IC50 (second compound 0.316 µM) is reported as 42.6 nM. It also gave an IC50 (second compound 1 µM) of under 31.6 nM, an IC50 (second compound 3.16 µM) of under 31.6 nM and an IC50 (second compound 10 µM) of under 31.6 nM. The viability, T/C [1] was 60.9%, the viability, T/C [2] was 17.7% and the viability, T/C [3] was 11%. For the same compound, the viability, T/C [4] was 8.82%, the viability, T/C [5] was 8.83% and the viability, T/C [6] was 9.73%. It also gave a viability, T/C [7] of 51.1%, a viability, T/C [8] of 24.9% and a viability, T/C [9] of 7.73%. For the same compound, the viability, T/C [10] was 11.8%, the viability, T/C [11] was 11.2% and the viability, T/C [12] was 12.9%. For the same compound, the viability, T/C [13] was 60.3%, the viability, T/C [14] was 22% and the viability, T/C [15] was 10.2%. For the same compound, the viability, T/C [16] was 10.3%, the viability, T/C [17] was 11.5% and the viability, T/C [18] was 11.2%. For the same compound, the viability, T/C [19] was 40.8%, the viability, T/C [20] was 19.7% and the viability, T/C [21] was 11.4%. It also gave a viability, T/C [22] of 11.6%, a viability, T/C [23] of 12.7% and a viability, T/C [24] of 11.7%. It also gave a viability, T/C [25] of 43.6%, a viability, T/C [26] of 20.3% and a viability, T/C [27] of 11.1%. It also gave a viability, T/C [28] of 9.17%, a viability, T/C [29] of 12.5% and a viability, T/C [30] of 12.6%. For the same compound, the viability, T/C [31] was 37%, the viability, T/C [32] was 24.6% and the viability, T/C [33] was 10.4%. The viability, T/C [34] was 10.4%, the viability, T/C [35] was 11.1% and the viability, T/C [36] was 9.2%.
For `CC(C)(O)C1CCC(Nc2ccc3ncc(-c4cccc(C(F)(F)F)c4)n3n2)CC1` (centres undefined) + Cc1cnc(CNC(=O)c2c(=O)c3ccc(N4CCCN(C)CC4)nc3n3c2sc2ccccc23)cn1, the IC50 (second compound 0.0316 µM) was over 10000 nM, the IC50 (second compound 0.1 µM) was 4380 nM and the IC50 (second compound 0.316 µM) was 1370 nM. It also gave an IC50 (second compound 1 µM) of 371 nM, an IC50 (second compound 3.16 µM) of 39.9 nM and an IC50 (second compound 10 µM) of under 31.6 nM. It also gave a viability, T/C [1] of 94.1%, a viability, T/C [2] of 81.3% and a viability, T/C [3] of 97.5%. The viability, T/C [4] was 67%, the viability, T/C [5] was 49.7% and the viability, T/C [6] was 51.6%. For the same compound, the viability, T/C [7] was 64.5%, the viability, T/C [8] was 71.7% and the viability, T/C [9] was 57.6%. For the same compound, the viability, T/C [10] was 65.8%, the viability, T/C [11] was 47.2% and the viability, T/C [12] was 44.8%. It also gave a viability, T/C [13] of 57.3%, a viability, T/C [14] of 55.1% and a viability, T/C [15] of 58.9%. The viability, T/C [16] was 54.1%, the viability, T/C [17] was 38.4% and the viability, T/C [18] was 39.7%. It also gave a viability, T/C [19] of 49.2%, a viability, T/C [20] of 48.9% and a viability, T/C [21] of 54%. The viability, T/C [22] was 45.5%, the viability, T/C [23] was 31.4% and the viability, T/C [24] was 36.2%. The viability, T/C [25] was 52.5%, the viability, T/C [26] was 45% and the viability, T/C [27] was 43.3%. It also gave a viability, T/C [28] of 42.8%, a viability, T/C [29] of 25.2% and a viability, T/C [30] of 15.8%. For the same compound, the viability, T/C [31] was 43.4%, the viability, T/C [32] was 38.8% and the viability, T/C [33] was 41.6%. The viability, T/C [34] was 37.9%, the viability, T/C [35] was 0.55% and the viability, T/C [36] was 0.23%.
